# Measurements: patent US7125881B2, “Use of pyrimidine—or triazine—2 carbonitiles for treating diseases associated with cysteine prostease activity and novel pyrimidine-2-carbonitile derivatives” (AstraZeneca AB, priority 2002, dated 2006)
# Structures can show the parent of a compound that is named as a salt.
row,Compound,melting point [°C]
1,"COc1c(Nc2ccc(Cl)cc2)nc(C#N)nc1N1CCN(CCCN(C)C)CC1 (as salt: trifluoroacetate) [Example 47, 4-[(4-Chlorophenyl)amino]-6-{4-[3-(dimethylamino)propyl]piperazin-1-yl}-5-methoxypyrimidine-2-carbonitrile]",210 to 212
2,"COc1c(Nc2ccc(Cl)cc2)nc(C#N)nc1N1CC[C@H](N)C1 (as salt: trifluoroacetate) [Example 46, 4-[(3S)-3-Aminopyrrolidin-1-yl]-6-[(4-chlorophenyl)amino]-5-methoxypyrimidine-2-carbonitrile]",345 to 347
3,"COc1c(Nc2ccc(Cl)cc2)nc(C#N)nc1N1CCOCC1 [Example 45, 4-[(4-Chlorophenyl)amino]-5-methoxy-6-morpholin-4-ylpyrimidine-2-carbonitrile]",176
4,"COc1c(Nc2ccc(Cl)cc2)nc(C#N)nc1N1CCNCC1 (as salt: trifluoroacetate) [Example 44, 4-[(4-Chlorophenyl)amino]-5-methoxy-6-piperazin-1-ylpyrimidine-2-carbonitrile]",230

# Results, then the compound that gave them:
row,melting point [°C],Compound
1,173,"COc1c(Nc2ccc(Cl)cc2)nc(C#N)nc1N(C)C [Example 48, 4-[(4-Chlorophenyl)amino]-6-(dimethylamino)5-methoxypyrimidine-2-carbonitrile]"
2,244,"COc1c(Nc2ccc(Cl)cc2)nc(C#N)nc1N1CCNC(=O)C1 [Example 49, 4-[(4-Chlorophenyl)amino]-5-methoxy-6(3-oxopiperazin-1-yl)pyrimidine-2-carbonitrile]"
3,253 to 254,"N#Cc1nc(Nc2ccc(Cl)cc2)c(N)c(N2CCOCC2)n1 [Example 52, 5-Amino-4-[(4-chlorophenyl)amino]-6-morpholin-4-ylpyrimidine-2-carbonitrile]"
4,211 to 212,"CCNc1nc(C#N)nc(Nc2ccc(Cl)cc2)c1N [Example 53, 5-Amino-4[(4-Chlorophenyl)amino]-6(ethylamino)pyrimidine-2-carbonitrile]"
